# Laboratory results published in patent publication US20090221522A1, “METHODS TO CORRECT GENE SET EXPRESSION PROFILES TO DRUG SENSITIVITY” (The Johns Hopkins University, priority 2008, published 2009).
# System: direct pancreatic cancer xenografts (fine needle aspiration cells)
# Test: Ex vivo perturbability assay, low-density microarray RT-PCR
# Format: cell-based
# Parameters: key to RRM1 gene expression / NFKB1 gene expression / BNIP3L gene expression / VHL gene expression / DCK gene expression / HIF1B gene expression / IGF1R gene expression / MAPK1 gene expression / MAP2K2 gene expression / JUN gene expression / IHH gene expression: % of untreated control (treated sample normalized to untreated)
# Settings: treated normalized to untreated control
# Source text: Direct pancreatic cancer derived xenografts: Resected pancreatic adenocarcinomas are routinely implanted in nude mice at the Johns Hopkins Medical Institutions as a method to obtain enriched populations of neoplastic cells under an IRB-approved protocol from residual pancreatic cancer tumors. Tumor specimens from Whipple resection specimens were divided into 2-3 mm^3 pieces in antibiotic-containing RPMI media. Pieces of non-necrotic tissue were selected and immersed in Matrigel. Under anesthesia with isofluorane, tumors were implanted into five-to-six week-old female athymic (nu/nu) mice purchased from Harlan (Harlan Laboratories, Washington, D.C.). This research protocol was approved by the Johns Hopkins University Animal Use and Care Committee arid animals were maintained in accordance to guidelines of the American Association of Laboratory Animal Care. Tumors were propagated to subsequent cohorts of mice until a sufficient number were available for drug testing.
# Fine needle aspiration (FNA): FNAs on mice were performed according to standard cytopathologic practice using 10 cc syringes and 25-gauge needles. The procedure was performed under inhaled general anesthesia with isofluorane. During each FNA procedure the first pass was smeared onto glass slides and used for morphologic analysis and quality control, (DiffQuik™ and Papanicoloau), and the second through sixth passes were used to acquire viable cells.
# Ex vivo assay: FNA passes used to acquire viable cells were immediately transferred into 10 ml sterile prewarmed complete RPMI-1640 culture medium containing 10% FBS, penicillin (200 ug/ml), and streptomycin (200 ug/ml). Equivalent aliquots of cells were seeded in two wells of a 6-well polypropylene microplate. […] Following treatment, non-adherent and adherent cells (collected by scraping) were pooled together in a 1.5 mL microcentrifuge tube and centrifuged at 500 g for 5 mm at 4° C. After washing with PBS, cells were lysed in 100 μL of ice-cold RLT.
# RNA extraction and cDNA generation: Total RNA was extracted from cells using the RNeasy™ Mini Kit (Qiagen, Valencia, Calif.) following the manufacturer's instructions. cDNA was synthesized using iScript cDNA synthesis kit (Bio-Rad) following the manufacturer's instructions.
# Low-density micro arrays (LDMA): The samples were run in a customized assay with a 384-well format (ABI, Foster City, Calif.), where the expression of 45 to 381 relevant genes can be quantitatively tested. For this example, the array was designed with 8 replicated sections containing 48 wells, with primers of one gene per well: 3 housekeeping genes (HK: UBC, HPRT, SDHA), and 45 genes of interest. 50 μL of cDNA plus 50 μL of ABI mastermix were loaded onto each of two contiguous lanes to have duplicated readouts of every sample, and were run by real-time reverse transcriptase PCR (RT-PCR). The amount of change in the target genes was calculated by comparing the threshold cycle (CT) of each gene to the geometric mean of the CTs of the HK genes. Relative expression of the target genes was estimated using the formula: relative expression=2−^ΔCT, where ΔCT=CT (target gene)−CT (average of the 3 HK genes). The experiment was run in duplicate and mean values are analyzed.
# Data analysis: The expression level of each gene in the treated sample was normalized to that of the untreated control. A significant change was defined when the gene expression either increases two-fold or more (>200%), or decreases to half or more (<50%). The rest is considered uninformative.
smiles,measurement,setting,value
Nc1ccn([C@@H]2O[C@H](CO)[C@@H](O)C2(F)F)c(=O)n1 [gemcitabine],AXIN2 gene expression,case #1,67
same,BAX gene expression,case #1,91
same,BNIP3L gene expression,case #1,109
same,BRAF gene expression,case #1,116
same,BRCA1 gene expression,case #1,81
same,CCND1 gene expression,case #1,127
same,CXCR4 gene expression,case #1,100
same,CyclinB1 gene expression,case #1,68
same,DCK gene expression,case #1,164
same,EGFR gene expression,case #1,124
same,ERCC1 gene expression,case #1,107
same,FOS gene expression,case #1,113
same,GADD45A gene expression,case #1,108
same,GLI2 gene expression,case #1,72
same,HIF1A gene expression,case #1,126
same,HIF1B gene expression,case #1,99
same,IGF1R gene expression,case #1,51
same,IGFBP3 gene expression,case #1,135
same,IHH gene expression,case #1,113
same,MAP2K2 gene expression,case #1,127
same,MAPK3 gene expression,case #1,152
same,MDM2 gene expression,case #1,134
same,MSLN gene expression,case #1,101
same,NOTCH1 gene expression,case #1,158
same,NOTCH2 gene expression,case #1,113
same,PLK1 gene expression,case #1,50
same,PSCA gene expression,case #1,106
same,PTCH gene expression,case #1,81
same,SHH gene expression,case #1,70
same,Survivin gene expression,case #1,81
same,TGFA gene expression,case #1,99
same,VEGF gene expression,case #1,106
same,VHL gene expression,case #1,104
same,p21 gene expression,case #1,96
same,AXIN2 gene expression,case #2,63
same,BAX gene expression,case #2,95
same,BNIP3L gene expression,case #2,96
same,BRAF gene expression,case #2,98
same,BRCA1 gene expression,case #2,63
same,CCND1 gene expression,case #2,128
same,CXCR4 gene expression,case #2,5
same,CyclinB1 gene expression,case #2,99
same,DCK gene expression,case #2,112
same,EGFR gene expression,case #2,101
same,ERCC1 gene expression,case #2,78
same,FOS gene expression,case #2,115
same,GADD45A gene expression,case #2,108
same,GLI2 gene expression,case #2,82
same,HIF1A gene expression,case #2,111
same,HIF1B gene expression,case #2,129
same,IGF1R gene expression,case #2,105
same,IGFBP3 gene expression,case #2,205
same,IHH gene expression,case #2,131
same,MAP2K2 gene expression,case #2,78
same,MAPK1 gene expression,case #2,104
same,MAPK3 gene expression,case #2,71
same,MDM2 gene expression,case #2,92
same,MSLN gene expression,case #2,118
same,NFKB1 gene expression,case #2,138
same,NOTCH1 gene expression,case #2,138
same,NOTCH2 gene expression,case #2,119
same,PLK1 gene expression,case #2,34
same,PSCA gene expression,case #2,127
same,PTCH gene expression,case #2,102
same,RRM1 gene expression,case #2,166
same,SHH gene expression,case #2,108
same,Survivin gene expression,case #2,110
same,TGFA gene expression,case #2,113
same,VEGF gene expression,case #2,101
same,VHL gene expression,case #2,116
same,p21 gene expression,case #2,110
same,AXIN2 gene expression,case #3,44
same,BAX gene expression,case #3,78
same,BNIP3L gene expression,case #3,82
same,BRAF gene expression,case #3,93
same,BRCA1 gene expression,case #3,84
same,CCND1 gene expression,case #3,106
same,CXCR4 gene expression,case #3,43
same,CyclinB1 gene expression,case #3,48
same,DCK gene expression,case #3,80
same,EGFR gene expression,case #3,70
same,ERCC1 gene expression,case #3,88
same,FOS gene expression,case #3,123
same,GADD45A gene expression,case #3,104
same,GLI2 gene expression,case #3,73
same,HIF1A gene expression,case #3,106
same,HIF1B gene expression,case #3,106
same,IGF1R gene expression,case #3,66
same,IGFBP3 gene expression,case #3,49
same,IHH gene expression,case #3,130
same,MAP2K2 gene expression,case #3,106
same,MAPK3 gene expression,case #3,109
same,MDM2 gene expression,case #3,137
same,MSLN gene expression,case #3,91
same,NFKB1 gene expression,case #3,94
same,NOTCH1 gene expression,case #3,132
same,NOTCH2 gene expression,case #3,103
same,PLK1 gene expression,case #3,36
same,PSCA gene expression,case #3,115
same,PTCH gene expression,case #3,53
same,RRM1 gene expression,case #3,81
same,SHH gene expression,case #3,65
same,Survivin gene expression,case #3,58
same,TGFA gene expression,case #3,92
same,VEGF gene expression,case #3,86
same,VHL gene expression,case #3,118
same,p21 gene expression,case #3,99
same,AXIN2 gene expression,case #4,142
same,BAX gene expression,case #4,100
same,BNIP3L gene expression,case #4,115
same,BRAF gene expression,case #4,175
same,BRCA1 gene expression,case #4,343
same,CCND1 gene expression,case #4,171
same,CXCR4 gene expression,case #4,13
same,CyclinB1 gene expression,case #4,124
same,DCK gene expression,case #4,176
same,EGFR gene expression,case #4,54
same,ERCC1 gene expression,case #4,94
same,FOS gene expression,case #4,108
same,GADD45A gene expression,case #4,78
same,GLI2 gene expression,case #4,11
same,HIF1A gene expression,case #4,146
same,HIF1B gene expression,case #4,56
same,IGF1R gene expression,case #4,41
same,IGFBP3 gene expression,case #4,130
same,IHH gene expression,case #4,92
same,JUN gene expression,case #4,83
same,MAP2K2 gene expression,case #4,146
same,MAPK1 gene expression,case #4,68
same,MAPK3 gene expression,case #4,108
same,MDM2 gene expression,case #4,43
same,MSLN gene expression,case #4,89
same,NFKB1 gene expression,case #4,104
same,NOTCH1 gene expression,case #4,134
same,NOTCH2 gene expression,case #4,92
same,PLK1 gene expression,case #4,15
same,PSCA gene expression,case #4,81
same,PTCH gene expression,case #4,93
same,RRM1 gene expression,case #4,79
same,SHH gene expression,case #4,91
same,Survivin gene expression,case #4,166
same,TGFA gene expression,case #4,85
same,VEGF gene expression,case #4,103
same,VHL gene expression,case #4,127
same,p21 gene expression,case #4,102
same,AXIN2 gene expression,case #5,210
same,BAX gene expression,case #5,109
same,BNIP3L gene expression,case #5,90
same,BRAF gene expression,case #5,146
same,BRCA1 gene expression,case #5,95
same,CCND1 gene expression,case #5,141
same,CXCR4 gene expression,case #5,229
same,CyclinB1 gene expression,case #5,53
same,DCK gene expression,case #5,132
same,EGFR gene expression,case #5,71
same,ERCC1 gene expression,case #5,105
same,FOS gene expression,case #5,112
same,GADD45A gene expression,case #5,121
same,GLI2 gene expression,case #5,118
same,HIF1A gene expression,case #5,108
same,HIF1B gene expression,case #5,65
same,IGF1R gene expression,case #5,61
same,IGFBP3 gene expression,case #5,122
same,IHH gene expression,case #5,141
same,JUN gene expression,case #5,135
same,MAP2K2 gene expression,case #5,151
same,MAPK1 gene expression,case #5,86
same,MAPK3 gene expression,case #5,95
same,MDM2 gene expression,case #5,73
same,MSLN gene expression,case #5,100
same,NFKB1 gene expression,case #5,163
same,NOTCH1 gene expression,case #5,89
same,NOTCH2 gene expression,case #5,56
same,PLK1 gene expression,case #5,21
same,PSCA gene expression,case #5,102
same,PTCH gene expression,case #5,48
same,RRM1 gene expression,case #5,92
same,SHH gene expression,case #5,113
same,Survivin gene expression,case #5,67
same,TGFA gene expression,case #5,97
same,VEGF gene expression,case #5,107
same,VHL gene expression,case #5,79
same,p21 gene expression,case #5,143
